Measurements published in ChEMBL document CHEMBL1201862, “PubChem BioAssay data set” (2004).
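These data come from cells grown in 96-well plates and exposed to compound for 48 hours at five concentrations. GI50 marks 50% less growth.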 The source made the active and inactive calls. Rule as the data show it: active = GI50 up to about 1.1 µM and inactive = higher.

Tests used:
Test in all cases: growth of human tumour cells (NCI), 48 h
HCT-15 = system: HCT-15
NCI-H460 = system: NCI-H460
SN12C = system: SN12C
KM12 = system: KM12
MDA-N = system: MDA-N
OVCAR-5 = system: OVCAR-5
HCT-116 = system: HCT-116
CAKI-1 = system: CAKI-1
UACC-257 = system: UACC-257
OVCAR-8 = system: OVCAR-8
786-0 = system: 786-0
SNB-75 = system: SNB-75
HCC 2998 = system: HCC 2998
UACC-62 = system: UACC-62
SK-MEL-28 = system: SK-MEL-28
MDA-MB-435 = system: MDA-MB-435
M14 = system: M14
HL-60 = system: HL-60
NCI-H522 = system: NCI-H522
SK-OV-3 = system: SK-OV-3

Measured: GI50

O=C1c2ccccc2C2=Cc3ccccc3C(O)N12 (stereo not given)
inactive: NCI-H460 > 100 µM | SN12C > 100 µM | KM12 > 100 µM | MDA-N > 100 µM | OVCAR-5 > 100 µM | HCT-116 > 100 µM | CAKI-1 22.7 µM | UACC-257 > 100 µM | OVCAR-8 > 100 µM | 786-0 > 100 µM | SNB-75 92.5 µM | HCC 2998 > 100 µM | UACC-62 24.9 µM | SK-MEL-28 37.1 µM | MDA-MB-435 > 100 µM | M14 > 100 µM | HL-60 26.2 µM | NCI-H522 21.7 µM | SK-OV-3 > 100 µM
> 100 µM: HCT-15

NCCCNC1(c2cc3ccccc3s2)CCCCC1
inactive: NCI-H460 1.94 µM | SN12C 10.5 µM | KM12 3.22 µM | MDA-N 1.78 µM | OVCAR-5 13 µM | HCT-116 2.06 µM | CAKI-1 8.43 µM | UACC-257 1.64 µM | OVCAR-8 9.62 µM | 786-0 2 µM | SNB-75 10.9 µM | HCC 2998 1.55 µM | UACC-62 1.92 µM | SK-MEL-28 2.12 µM | MDA-MB-435 1.94 µM | M14 1.8 µM | HL-60 2.64 µM | NCI-H522 3.21 µM | SK-OV-3 13.5 µM
4.49 µM: HCT-15

Clc1ccc2c(NCCNc3ccnc4cc(Cl)ccc34)ccnc2c1
15.6 µM: HCT-15
inactive: NCI-H460 14 µM | SN12C 17.8 µM | KM12 18.2 µM | MDA-N 17.1 µM | OVCAR-5 16.5 µM | HCT-116 16.9 µM | CAKI-1 20.2 µM | UACC-257 17.9 µM | OVCAR-8 19.7 µM | 786-0 14.3 µM | SNB-75 21.5 µM | HCC 2998 15.2 µM | UACC-62 18.1 µM | SK-MEL-28 17.3 µM | MDA-MB-435 17.8 µM | M14 16.9 µM | HL-60 14.6 µM | NCI-H522 18.3 µM | SK-OV-3 17.7 µM

Fc1cccc(F)c1C1SCc2nc3cc(Cl)ccc3n21 (stereo not given)
28.6 µM: HCT-15
inactive: NCI-H460 41.5 µM | SN12C 56.5 µM | KM12 22.8 µM | MDA-N 32.8 µM | OVCAR-5 84.1 µM | HCT-116 18.5 µM | CAKI-1 16.6 µM | UACC-257 32.8 µM | OVCAR-8 58.7 µM | 786-0 25.7 µM | SNB-75 40.1 µM | HCC 2998 22.7 µM | UACC-62 37.9 µM | SK-MEL-28 50.8 µM | MDA-MB-435 33 µM | M14 31 µM | HL-60 14 µM | NCI-H522 39.7 µM | SK-OV-3 80.2 µM

CCOC(=O)C1(C/C=C/CBr)Cc2ccccc2C1=O (stereo not given)
2.24 µM: HCT-15
inactive: NCI-H460 1.75 µM | SN12C 1.99 µM | KM12 3.07 µM | MDA-N 2.2 µM | OVCAR-5 3.02 µM | HCT-116 3.71 µM | CAKI-1 2.42 µM | UACC-257 8.17 µM | OVCAR-8 2.39 µM | 786-0 3.85 µM | SNB-75 5.86 µM | HCC 2998 9.02 µM | UACC-62 2.14 µM | SK-MEL-28 6.93 µM | MDA-MB-435 1.72 µM | M14 2.83 µM | HL-60 3.21 µM | NCI-H522 1.63 µM | SK-OV-3 8.69 µM

C[C@H](Nc1nc(N)c(N=O)c(=O)n1C)C(=O)O
> 10 µM: HCT-15
inactive: NCI-H460 > 10 µM | SN12C > 10 µM | KM12 > 10 µM | MDA-N > 10 µM | OVCAR-5 > 10 µM | HCT-116 > 10 µM | CAKI-1 > 10 µM | UACC-257 > 10 µM | OVCAR-8 > 10 µM | 786-0 > 10 µM | SNB-75 > 10 µM | HCC 2998 > 10 µM | UACC-62 > 10 µM | SK-MEL-28 > 10 µM | MDA-MB-435 > 10 µM | M14 > 10 µM | HL-60 > 10 µM | NCI-H522 > 10 µM | SK-OV-3 > 10 µM
